Values quoted from earlier work, collected in patent publication US20100151008A1, “Preparations and Methods for Textile and or Fiber Surface Finishing, Surface Finished Articles Prepared Thereby, and Uses Therefor” (Cognis IP Management GmbH, priority 2003, published 2010).

- solubility in ether, benzene and petroleum ether (ether, benzene and petroleum ether): soluble
- solubility in water (water): virtually insoluble
Compound: CC(C)CCC[C@@H](C)[C@H]1CC[C@H]2[C@@H]3CC=C4C[C@@H](O)CC[C@]4(C)[C@H]3CC[C@]12C [cholesterol, 5-cholesten-3b-ol]
- solubility in alcohol (alcohol): only sparingly when cold, but more readily after heating
